Read-outs that look alike come from different tables or passages of the source.

This is an account of results in patent US20220411372A1, “SMALL-MOLECULE INHIBITORS FOR THE B-CATENIN/B-CELL LYMPHOMA 9 PROTEIN-PROTEIN INTERACTION” (H. Lee Moffitt Cancer Center and Research Institute, Inc., priority 2019, published 2022).

The test deals with T1, β-catenin/BCL9 PPI (Homo sapiens, UniProt P35222).
T1 construct: Full-length β-catenin (residues 1-781) were cloned into a pET-28b vector; made in house; host or cells: E. coli BL21 DE3 (β-catenin); BCL9 peptide synthesized by InnoPep Inc
T1 sequence (P35222 1-781): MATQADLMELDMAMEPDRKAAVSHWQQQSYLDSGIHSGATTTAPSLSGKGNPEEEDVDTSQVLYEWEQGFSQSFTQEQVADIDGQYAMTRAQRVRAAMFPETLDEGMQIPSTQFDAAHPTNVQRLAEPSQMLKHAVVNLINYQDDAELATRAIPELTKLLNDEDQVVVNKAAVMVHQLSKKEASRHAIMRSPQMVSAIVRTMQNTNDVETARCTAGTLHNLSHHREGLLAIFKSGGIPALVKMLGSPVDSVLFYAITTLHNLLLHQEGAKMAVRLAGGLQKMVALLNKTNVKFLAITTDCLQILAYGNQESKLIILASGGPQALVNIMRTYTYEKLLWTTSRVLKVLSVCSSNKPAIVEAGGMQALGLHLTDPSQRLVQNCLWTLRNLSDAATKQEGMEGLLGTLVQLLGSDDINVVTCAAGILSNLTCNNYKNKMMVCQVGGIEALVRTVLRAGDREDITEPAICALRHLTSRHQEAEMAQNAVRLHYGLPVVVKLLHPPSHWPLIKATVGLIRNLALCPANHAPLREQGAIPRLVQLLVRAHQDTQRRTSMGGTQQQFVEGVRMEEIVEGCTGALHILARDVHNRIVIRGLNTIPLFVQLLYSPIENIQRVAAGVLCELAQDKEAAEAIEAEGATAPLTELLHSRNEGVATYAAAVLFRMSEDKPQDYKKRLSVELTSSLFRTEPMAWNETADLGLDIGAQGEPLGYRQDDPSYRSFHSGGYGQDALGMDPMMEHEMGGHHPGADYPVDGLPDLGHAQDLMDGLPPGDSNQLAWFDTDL
In words: AlphaScreen competitive inhibition assay of the β-catenin/BCL9 PPI. In kind it is binding. Put shortly:
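5 nM biotinylated BCL9 and 40 nM His6-β-catenin preincubated 30 min at 4° C in pH 7.4 Hepes buffer with 0.01% Triton X-100, 0.1% BSA, 1% DMSO; inhibitor added 1 h at 4° C, then 10 μg/mL donor/acceptor beads 1 h.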

[1] abbreviates: Table 4, left half, inhibitors 44-48, read-out: Ki.
The mark [2] stands for this setting: Table 1, inhibitors 1-14, read-out: Ki.
The mark [3] stands for this setting: Table 10, inhibitors 99-106, racemic, read-out: Ki ± SD.
[4] abbreviates: Table 5, inhibitors 54-62, read-out: Ki.
Where [5] appears, read: Table 2, inhibitors 15-26, read-out: Ki.

For `CC(C)(Oc1cccc(N2CCC[C@@H](C(=O)N(Cc3ccc(-c4cn[nH]c4)cc3)CC3CC3)C2)c1)C(=O)N1CCNCC1` [Compound 48, (R)-4-(2-(3-(3-((4-(1H-pyrazol-4-yl)benzyl)(cyclopropylmethyl)carbamoyl)piperidin-1-yl)phenoxy)-2-methylpropanoyl)piperazin-1-ium chloride], the Ki under setting [1] was < 90 µM.
`CC(C)N(Cc1ccc(-c2cn[nH]c2)cc1)C(=O)[C@@H]1CCCN(c2cccc(OC(C)(C)C(=O)N3CCNCC3)c2)C1` [Compound 47, (R)-4-(2-(3-(3-((4-(1H-pyrazol-4-yl)benzyl)(isopropyl)carbamoyl)piperidin-1-yl)phenoxy)-2-methylpropanoyl)piperazin-1-ium chloride]: the Ki under setting [1] was < 10 µM.
In the case of `CC(C)c1ccc(CN(C(=O)[C@@H]2CCCN(c3cccc(OC(C)(C)C(=O)O)c3)C2)C(C)C)cc1` [Compound 9, (R)-2-(3-(3-(isopropyl(4-isopropylbenzyl)carbamoyl)piperidin-1-yl)phenoxy)-2-methylpropanoic acid], under setting [2], the Ki is > 90 µM.
For `CC(C)(Oc1cccc(N2CCC[C@@H](C(=O)N(Cc3ccc(-c4cn[nH]c4)cc3)C3CCCCC3)C2)c1)C(=O)N1CCNCC1` [Compound 51, (R)-4-(2-(3-(3-((4-(1H-pyrazol-4-yl)benzyl)(cyclohexyl)carbamoyl)piperidin-1-yl)phenoxy)-2-methylpropanoyl)piperazin-1-ium chloride], the Ki (Table 4, right half, inhibitors 49-53, read-out: Ki ± SD) is < 30 µM.
With `CC(C)c1ccc(CN(C)C(=O)[C@@H]2CCCN(c3cccc(OC(C)(C)C(=O)O)c3)C2)cc1` [Compound 5, (R)-2-(3-(3-((4-isopropylbenzyl)(methyl)carbamoyl)piperidin-1-yl)phenoxy)-2-methylpropanoic acid], under setting [2], the inhibitory constant (Ki) was < 50 µM.
As to `Cn1nccc1-c1ccc(CN(C(=O)C2CCCN(c3cccc(OC(C)(C)C(=O)O)c3)C2)C2CC2)cc1` (racemic) [Compound 102, 2-(3-(3-(cyclopropyl(4-(1-methyl-1H-pyrazol-5-yl)benzyl)carbamoyl)piperidin-1-yl)phenoxy)-2-methylpropanoic acid], the Ki under setting [3] is > 90 µM.
Regarding `CN(Cc1ccc(-c2cn[nH]c2)cc1)C(=O)[C@@H]1CCCN(c2cccc(OC(C)(C)C(=O)N3CCNCC3)c2)C1` [Compound 45, (R)-4-(2-(3-(3-((4-(1H-pyrazol-4-yl)benzyl)(methyl)carbamoyl)piperidin-1-yl)phenoxy)-2-methylpropanoyl)piperazin-1-ium chloride], the Ki under setting [1] is < 30 µM.
With `CC(C)c1ccc(CN(C(=O)C2CCCN(c3cccc(OC(C)(C)C(=O)O)c3)C2)C(C)C)cc1` (racemic) [Compound 97, 2-(3-(3-(isopropyl(4-isopropylbenzyl)carbamoyl)piperidin-1-yl)phenoxy)-2-methylpropanoic acid], the Ki (Table 9, inhibitors 93-98, racemic, read-out: Ki) was ≤ 90 µM.
Regarding `CC(C)(Oc1cccc(N2CCC[C@@H](C(=O)N(Cc3ccc(-c4cn[nH]c4)cc3)C3CC3)C2)c1)C(=O)N1CCC2(CNC2)C1` [Compound 61, (R)-6-(2-(3-(3-((4-(1H-pyrazol-4-yl)benzyl)(cyclopropyl)carbamoyl)piperidin-1-yl)phenoxy)-2-methylpropanoyl)-2,6-diazaspiro[3.4]octan-2-ium 2,2,2-trifluoroacetate], the Ki under setting [4] is < 30 µM.
Take `CC(C)c1ccc(CN(C(=O)[C@H]2CCCN(c3cccc(OC(C)(C)C(=O)N4CCNCC4)c3)C2)C(C)C)cc1` [Compound 24, (S)-4-(2-(3-(3-(isopropyl(4-isopropylbenzyl)carbamoyl)piperidin-1-yl)phenoxy)-2-methylpropanoyl)piperazin-1-ium chloride]: the Ki under setting [5] is ≤ 10 µM.
With `CC(C)c1ccc2c(c1)CCN(C(=O)[C@@H]1CCCN(c3cccc(OC(C)(C)C(=O)N4CCNCC4)c3)C1)C2` [Compound 90, (R)-4-(2-(3-(3-(6-isopropyl-1,2,3,4-tetrahydroisoquinoline-2-carbonyl)piperidin-1-yl)phenoxy)-2-methylpropanoyl)piperazin-1-ium chlorine], the Ki (Table 8, inhibitors 82-92, read-out: Ki) is < 30 µM.
On to `CC(C)c1ccc(CN(C(=O)[C@H]2CCCN(c3cccc(OC(C)(C)C(=O)N4CCNCC4)c3)C2)C2CC2)cc1` [Compound 26, (S)-4-(2-(3-(3-(cyclopropyl(4-isopropylbenzyl)carbamoyl)piperidin-1-yl)phenoxy)-2-methylpropanoyl)piperazin-1-ium chloride], for which the Ki under setting [5] is ≤ 10 µM.
For the compound `CC(C)(Oc1cccc(N2CCC[C@@H](C(=O)N(Cc3ccc(-c4ccncc4)cc3)C3CC3)C2)c1)C(=O)N1CCNCC1` [Compound 35, (R)-4-(2-(3-(3-(cyclopropyl(4-(pyridin-4-yl)benzyl)carbamoyl)piperidin-1-yl)phenoxy)-2-methylpropanoyl)piperazin-1-ium chloride], the Ki (Table 3, inhibitors 27-43, read-out: Ki) is < 90 µM.
With `CC(C)c1ccc(CNC(=O)[C@H]2CCCN(c3cccc(OC(C)(C)C(=O)N4CCNCC4)c3)C2)cc1` [Compound 18, (S)-4-(2-(3-(3-((4-isopropylbenzyl)carbamoyl)piperidin-1-yl)phenoxy)-2-methylpropanoyl)piperazin-1-ium chloride], the Ki under setting [5] is ≤ 30 µM.
Take `CC(C)(Oc1cccc(N2CCC[C@@H](C(=O)N(Cc3ccc(-c4cn[nH]c4)cc3)C3CC3)C2)c1)C(=O)N1C[C@H]2CNC[C@H]2C1` [Compound 58, (3aR,6aS)-5-(2-(3-((R)-3-((4-(1H-pyrazol-4-yl)benzyl)(cyclopropyl)carbamoyl)piperidin-1-yl)phenoxy)-2-methylpropanoyl)octahydropyrrolo[3,4-c]pyrrol-2-ium chloride]: the Ki under setting [4] was < 30 µM.
`CC(C)(Oc1cccc(N2CCCC(C(=O)N(Cc3ccc(-c4ccn[nH]4)cc3)C3CC3)C2)c1)C(=O)O` (racemic) [Compound 101, 2-(3-(3-((4-(1H-pyrazol-5-yl)benzyl)(cyclopropyl)carbamoyl)piperidin-1-yl)phenoxy)-2-methylpropanoic acid]: the Ki under setting [3] is ≤ 90 µM.
